The target in assay [1] is T1, human dopamine (hDAT) uptake transporter (Homo sapiens, UniProt Q01959).
T1 construct: expressed in transfected cells; host or cells: HEK293
Put plainly: Monoamine uptake inhibition, dopamine uptake in transfected HEK293 cells. In kind it is cell-based. The method, then:
The monoamine uptake transporter inhibition was examined in accordance with previously described methods by for each substance of interest.
Human embryonic kidney 293 (HEK293) cells (Invitrogen, Zug, Switzerland) stably transfected with the human norepinephrine (hNET), dopamine (hDAT), or serotonin (hSERT) uptake transporters were briefly cultured in Dulbecco’s modified Eagle’s medium (DMEM; Gibco, Life Technologies, Zug, Switzerland) containing 10% fetal bovine serum and 250 μg/mL geneticin (Gibco, Life Technologies, Zug, Switzerland). Next, the cells were detached at a confluency of 70−90% and resuspended in Krebs–Ringer Bicarbonate Buffer (Sigma-Aldrich, Buchs, Switzerland) at a concentration of 3 × 10^6 cells per ml. The uptake buffer was additionally supplemented with 0.2 mg/mL of ascorbic acid (Sigma–Aldrich, Buchs, Switzerland) for the [^3H]-DA uptake experiments.
In summary, using round bottom 96-well plates, 100 μL of cell suspension was incubated in 25 μL of buffer containing test substances, vehicle control (0.7% dimethyl sulfoxide, DMSO), or 10 μM of the respective monoamine uptake inhibitor, mainly fluoxetine (SERT), nisoxetine (NET), or mazindol (DAT) for 10 min at room temperature while on a rotary shaker at 450 rpm (Thermomixer Comfort, Eppendorf, Hamburg, Germany). Thereafter, the monoamine uptake transporter was initiated by the addition of 50 μL of each respective radiolabelled neurotransmitter ([^3H]-5-HT, [^3H]-DA or [^3H]-NE) dissolved in the uptake buffer to a final concentration of 5 nM for an additional 10 min. Then, 100 μL of cell suspension mixture was transferred to microcentrifuge tubes containing 50 μL of 3 M potassium hydroxide (KOH, Sigma–Aldrich, Buchs, Switzerland) and 200 μL silicon oil (1:1 mixture of silicon oil type AR20 and AR200; Sigma–Aldrich, Buchs, Switzerland). Immediately after, the tubes were centrifugated (3 min, 13200 rpm) to terminate the uptake reaction by allowing the cells to move through the silicon oil into the KOH, which then lysed the cells. Quickly after, the tubes were immediately frozen with liquid nitrogen. Afterwards, the frozen cell pellet was cut off into 6 mL scintillation vials (Perkin–Elmer, Schwerzenbach, Switzerland) filled with 500 μL of lysis buffer (5 mM EDTA, 0.05 M TRIS-HCl, 50 mM NaCl and 1% NP-40 in water). Directly after the vials were shaken for 1 h at 700 rpm and then each vial was filled with 3 mL of scintillation fluid (Ultimagold, Perkin–Elmer, Schwerzenbach, Switzerland). The uptake of the monoamines was measured using a liquid scintillation counter (Packard Tri-Carb Liquid Scintillation Counter 1900 TR).
The data were analysed using Prism software (version 8, GraphPad, San Diego, CA, USA) and was fitted by a nonlinear regression to variable-slope sigmoidal dose-response curve. The IC50 values were extracted in order to determine each drug’s inhibition potency at the various monoamine transporters.

In the next assay the target is T2, h5-HT2B receptor (Homo sapiens, UniProt P41595).
T2 construct: expressed in transfected cells; host or cells: HEK293
T2 sequence (P41595 whole entry): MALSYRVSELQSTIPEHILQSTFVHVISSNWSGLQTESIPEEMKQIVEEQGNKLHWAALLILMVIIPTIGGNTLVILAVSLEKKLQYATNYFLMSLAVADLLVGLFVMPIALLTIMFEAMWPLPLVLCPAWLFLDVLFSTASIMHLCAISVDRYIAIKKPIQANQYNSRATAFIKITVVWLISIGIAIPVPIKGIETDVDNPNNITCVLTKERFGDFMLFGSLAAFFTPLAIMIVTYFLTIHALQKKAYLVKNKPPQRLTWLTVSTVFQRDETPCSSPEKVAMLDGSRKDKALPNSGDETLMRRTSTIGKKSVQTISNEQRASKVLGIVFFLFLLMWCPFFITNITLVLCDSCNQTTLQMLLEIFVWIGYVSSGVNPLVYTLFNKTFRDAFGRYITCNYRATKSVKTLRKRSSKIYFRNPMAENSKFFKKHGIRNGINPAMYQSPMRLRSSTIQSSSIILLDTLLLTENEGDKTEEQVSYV
Put plainly: Activation potency, FLIPR calcium assay in HEK293 cells. The assay is classed as cell-based. The procedure: Human embryonic kidney 293 (HEK293) cells were transfected with the human 5-HT2B receptors, seed into 96-well plates coated with poly-D-lysine at a concentration of 50,000 cell per 0.1 mL and then incubated for overnight at 37 °C in high glucose Dulbecco’s modified Eagle’s medium (DMEM; Invitrogen, Zug, Switzerland) containing 10% fetal calf serum (non-dialyzed, heat-inactivated), 250 mg/L Geneticin, and 10 mL/L PenStrep (Gibco). The medium was then removed using snap inversion and the cells were incubated with the 100 μL/well of calcium indicator Fluo-3-solution for 45 min at 31 °C (Molecular Probes, Eugene, OR, USA). Thereafter, the solution was removed using snap inversion and replaced with fresh calcium indicator Fluo-3-solution for an additional 45 min at 31 °C. The cells were then washed with HBSS and 20 mM HEPES using the EMBLA cell washer and immediately after incubated with 100 μL of assay buffer. The plate was then put into the FLIPR, turned online and the test drugs, diluted in the assay buffer were added to the corresponding wells (25 μL/well). The corresponding concentration vs. response curves were fitted using nonlinear regression and the EC50 values were calculated. The efficacy (maximal activity) was calculated relative to 5-HT activity, which was defined as 100%.

Another assay has as its target T3, h5-HT2C receptor (Homo sapiens, UniProt P28335).
T3 construct: expressed in transfected cells; host or cells: HEK293 cell preparations
T3 sequence (P28335 33-458): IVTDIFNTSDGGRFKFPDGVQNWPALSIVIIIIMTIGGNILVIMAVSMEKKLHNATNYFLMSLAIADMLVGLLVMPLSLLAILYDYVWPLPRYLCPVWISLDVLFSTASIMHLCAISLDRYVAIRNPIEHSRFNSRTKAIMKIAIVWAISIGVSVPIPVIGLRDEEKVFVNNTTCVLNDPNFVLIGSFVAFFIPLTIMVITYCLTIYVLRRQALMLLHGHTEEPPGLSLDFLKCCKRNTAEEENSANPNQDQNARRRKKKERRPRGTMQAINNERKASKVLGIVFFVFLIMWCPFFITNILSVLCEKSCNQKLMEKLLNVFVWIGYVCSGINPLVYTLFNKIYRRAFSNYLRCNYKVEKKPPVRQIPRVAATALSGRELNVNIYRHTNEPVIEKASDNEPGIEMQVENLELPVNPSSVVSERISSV
The assay is described as follows: Radioligand binding, [3H]-mesulgerine. The method, then:
(§1) The radioligand binding assays for the human 5-HT1A, 5-HT2A, and 5-HT2C receptors were examined as previously described by. In summary, the human embryonic kidney 293 (HEK293) cell preparations were stably transfected with the human 5-HT1A, 5-HT2A or 5-HT2C receptors and then incubated with their respective radiolabelled ligands at a concentration equal to the dissociation constant, Kd. The following radioligands were used for the 5-HT1A, 5-HT2A, and 5-HT2C receptors, respectively; 0.90 nM [^3H]8-hydroxy-2-(dipropylamino) tetralin (8-OH-DPAT), 0.40 nM [^3H]ketanserin, and 1.4 nM [^3H]mesulgerine. The radioligand displacement for each examined drug was determined. Specific binding of the radioligand to the target was calculated by subtracting the nonspecific binding (in the presence of the receptor’s competitor in excess) from the total observed binding. The following radioligand competitors were used for the 5-HT1A, 5-HT2A, and 5-HT2C receptors, respectively; 10 μM pindolol (5-HT1A receptor), 10 μM spiperone (5-HT2A receptor), and 10 μM mianserin (5-HT2C receptor).

A further assay addresses h5-HT2A receptor (Homo sapiens, UniProt P28223). Put plainly: Radioligand binding, [3H]-ketanserin. The arrangement: expressed in transfected cells; host or cells: HEK293 cell preparations. The method, then:
as §1

Here are results for 14 molecules from PMC8348686, “The Pharmacological Profile of Second Generation Pyrovalerone Cathinones and Related Cathinone Derivative” (International Journal of Molecular Sciences, 2021).

Molecules are shown by their SMILES. Like-named read-outs stand apart in the source and are kept apart here.

T1 sequence (Q01959 whole entry): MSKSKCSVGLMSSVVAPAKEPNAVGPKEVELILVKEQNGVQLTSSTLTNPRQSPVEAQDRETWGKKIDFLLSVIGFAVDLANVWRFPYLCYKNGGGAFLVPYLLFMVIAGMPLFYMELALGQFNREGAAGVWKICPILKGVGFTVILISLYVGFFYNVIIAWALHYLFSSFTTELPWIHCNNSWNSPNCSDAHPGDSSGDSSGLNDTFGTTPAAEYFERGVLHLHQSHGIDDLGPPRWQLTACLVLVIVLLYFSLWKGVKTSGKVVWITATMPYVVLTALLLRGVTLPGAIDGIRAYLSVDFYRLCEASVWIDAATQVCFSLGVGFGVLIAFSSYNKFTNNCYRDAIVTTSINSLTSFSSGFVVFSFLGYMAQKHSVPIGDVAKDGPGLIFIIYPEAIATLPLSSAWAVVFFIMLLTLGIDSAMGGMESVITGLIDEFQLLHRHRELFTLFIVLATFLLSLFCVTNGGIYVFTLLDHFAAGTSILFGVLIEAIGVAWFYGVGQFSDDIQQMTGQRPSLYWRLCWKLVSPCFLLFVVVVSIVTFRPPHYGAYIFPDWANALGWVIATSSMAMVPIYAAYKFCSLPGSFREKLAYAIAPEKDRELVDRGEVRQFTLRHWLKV
Sequence of h5-HT2A receptor (P28223 whole entry): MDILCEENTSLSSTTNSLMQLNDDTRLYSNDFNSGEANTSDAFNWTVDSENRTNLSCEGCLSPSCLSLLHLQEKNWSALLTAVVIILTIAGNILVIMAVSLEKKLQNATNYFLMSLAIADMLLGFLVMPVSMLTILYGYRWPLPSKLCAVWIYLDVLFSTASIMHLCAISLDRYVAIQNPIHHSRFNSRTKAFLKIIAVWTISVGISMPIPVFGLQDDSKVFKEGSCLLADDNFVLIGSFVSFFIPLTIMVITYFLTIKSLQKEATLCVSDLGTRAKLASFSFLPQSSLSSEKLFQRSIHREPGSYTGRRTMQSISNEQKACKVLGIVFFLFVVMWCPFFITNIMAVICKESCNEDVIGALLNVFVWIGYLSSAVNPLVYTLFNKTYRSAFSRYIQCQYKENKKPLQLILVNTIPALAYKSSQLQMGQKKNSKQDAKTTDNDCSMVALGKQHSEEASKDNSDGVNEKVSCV

Consider `CCC(C(=O)c1ccc2c(c1)OCO2)N1CCCC1` (stereo not drawn) [MDPBP, 3,4-methylenedioxy-α-pyrrolidinobutiophenone], for which inhibition in assay [1] was half-maximal at 0.07 µM (IC50). For the same molecule, the 50% effective concentration (EC50) on h5-HT2B receptor is over 20 µM. In addition, the inhibition constant (Ki) on h5-HT2C receptor was over 15 µM; at h5-HT2A receptor, over 13 µM.

`CCC(C(=O)c1ccc(F)cc1)N1CCCC1` (stereo not drawn) [4F-PBP, 4-fluoro-α-pyrrolidinobutiophenone]: the IC50 in assay [1] is 0.5 µM. Further, on h5-HT2B receptor, the 50% effective concentration (EC50) was over 20 µM. Besides, the Ki on h5-HT2C receptor was over 15 µM; on h5-HT2A receptor, over 13 µM.

In assay [1], `CCCCC(C(=O)c1ccc(C)cc1)N1CCCC1` (stereo not drawn) [MPHP, 4-methyl-α-pyrrolidinohexanophenone] yielded an IC50 of 0.06 µM. Besides, the EC50 at h5-HT2B receptor is over 20 µM. Besides, the inhibition constant (Ki) at h5-HT2C receptor was over 15 µM; at h5-HT2A receptor, 7.3 ± 1.2 µM.

`CCCC(C(=O)c1ccccc1)N1CCCC1` (stereo not drawn) [α-PVP, α-pyrrolidinopentiophenone]: in assay [1], the IC50 was determined as 0.03 µM. Moreover, the “DAT/SERT Ratio (95% CI)” value in assay [1] ((1/DAT IC50):(1/SERT IC50)) was over 1000. In addition, the “fold higher potency at the DAT” value in assay [1] (compared to α-PPP) is on record as 17 fold. In addition, the EC50 at h5-HT2B receptor is over 20 µM. Moreover, the Ki on h5-HT2C receptor is over 15 µM; at h5-HT2A receptor it was over 13 µM.

In the case of `CNC(C)Cc1ccc2c(c1)OCO2` (stereo not drawn) [MDMA, 3,4-methylenedioxymethamphetamine, reference compound], in assay [1], half-maximal inhibition (IC50) required 13 µM.

As for `CCCC(C(=O)c1ccc(C)cc1)N1CCCC1` (stereo not drawn) [Pyrovalerone, pyrovalerone], the “DAT/SERT Ratio (95% CI)” value is given as 256 (125–450) in assay [1] and over 72 in assay [1] (listed as pyrovalerone). Also, in assay [1], the IC50 stood at 0.05 µM. For the same molecule, the concentration giving a half-maximal response (EC50) at h5-HT2B receptor was over 20 µM. Besides, the inhibition constant (Ki) at h5-HT2C receptor is over 15 µM; on h5-HT2A receptor, over 13 µM.

In assay [1], `CCCCC(C(=O)c1ccc2c(c1)OCO2)N1CCCC1` (stereo not drawn) [MDPHP, 3,4-methylenedioxy-α-pyrrolidinohexanophenone] registered a concentration for half-maximal inhibition (IC50) of 0.05 µM. Further, the concentration giving a half-maximal response (EC50) at h5-HT2B receptor is over 20 µM. Besides, the inhibition constant Ki on h5-HT2C receptor was over 15 µM; on h5-HT2A receptor, over 13 µM.

`Cc1ccc(C(=O)C(C)N2CCCC2)cc1` (stereo not drawn) [4-MePPP, 4-methyl-α-pyrrolidinopropiophenone] had a half-maximal inhibitory concentration (IC50) in assay [1] of 0.75 µM. The “fold lower potency at the DAT” value in assay [1] (compared to pyrovalerone and MPHP) came to 15 fold. Besides, at h5-HT2B receptor, the EC50 is over 10 µM. For the same molecule, the figures for the inhibition constant Ki on h5-HT2C receptor and on h5-HT2A receptor were over 5.1 µM and 1.3 ± 0.4 µM, respectively.

In turn, `CCCCC(C(=O)c1ccccc1)N1CCCC1` (stereo not drawn) [α-PHP, α-pyrrolidinohexanophenone] registered an IC50 in assay [1] of 0.06 µM. Further, the “DAT/SERT Ratio (95% CI)” value in assay [1] ((1/DAT IC50):(1/SERT IC50)) is reported as over 1000. Also, in assay [1] (compared to α-PPP), the “fold higher potency at the DAT” value came to 9 fold. Moreover, the EC50 at h5-HT2B receptor was over 20 µM. Besides, the Ki on h5-HT2C receptor is over 15 µM; on h5-HT2A receptor it was over 13 µM.

As to `CCCC(C(=O)c1ccc2c(c1)OCO2)N1CCCC1` (stereo not drawn) [MDPV, 3,4-methylenedioxypyrovalerone], it took 0.03 µM to reach half-maximal inhibition in assay [1] (IC50). For the same molecule, the EC50 on h5-HT2B receptor was over 20 µM. For the same molecule, the inhibition constant (Ki) at h5-HT2C receptor was over 15 µM; at h5-HT2A receptor, over 13 µM.

In assay [1], `CCCCC(NCC)C(=O)c1ccccc1` (stereo not drawn) [NEH, N-ethylamine-hexanophenone] returned an IC50 of 0.18 µM. In addition, the EC50 at h5-HT2B receptor is over 20 µM. The Ki is over 15 µM on h5-HT2C receptor and over 13 µM on h5-HT2A receptor.

In assay [1], `CC(C(=O)c1ccccc1)N1CCCC1` (stereo not drawn) [α-PPP, α-pyrrolidinopropiophenone] showed a 50% inhibitory concentration (IC50) of 0.56 µM. Moreover, the “DAT/SERT Ratio (95% CI)” value in assay [1] ((1/DAT IC50):(1/SERT IC50)) is recorded as over 1000. The EC50 on h5-HT2B receptor was over 20 µM. Moreover, the Ki was over 15 µM at h5-HT2C receptor and 1.1 ± 0.3 µM at h5-HT2A receptor.

In assay [1], `COc1ccc(C(=O)C(C)N2CCCC2)cc1` (stereo not drawn) [MOPPP, 4-methoxy-α-pyrrolidinopropiophenone] yielded an IC50 of 4.6 µM. The “DAT/SERT Ratio (95% CI)” value in assay [1] ((1/DAT IC50):(1/SERT IC50)) was 20 (4.0–40). Also, the “fold lower inhibition potency at the DAT” value in assay [1] (compared to α-PPP) came to 8 fold. For the same molecule, on h5-HT2B receptor, the EC50 is over 20 µM. Further, the Ki is over 15 µM on h5-HT2C receptor and over 13 µM on h5-HT2A receptor.

With `CC(C(=O)c1ccc2c(c1)OCO2)N1CCCC1` (stereo not drawn) [MDPPP, 3,4-methylenedioxy-α-pyrrolidinopropiophenone], in assay [1], the IC50 came out at 0.54 µM. For the same molecule, the EC50 at h5-HT2B receptor is over 20 µM. The inhibition constant (Ki) at h5-HT2C receptor was over 15 µM; on h5-HT2A receptor, 8 ± 1.2 µM.

The term IC50 denotes the concentration needed to halve the response being measured. A high value points to lower potency. A word on the EC50: it is the concentration at which the effect is half-maximal. As usually defined, the Ki is the equilibrium dissociation constant of an inhibitor or competing ligand from its target.
